Test results reported in US5710160A, “Diphenyl pyridyl ethane derivatives as PDE IV inhibitors” (Merck Frosst Canada, Inc., priority 1996, dated 1998).
pIC50: −log10 of the molar value.

Assays:
[1] = target: T1, GST fusion protein of the human recombinant phosphodiesterase IVa (met-248) (Homo sapiens, UniProt P27815); assay: SPA based PDE activity assay (hydrolysis of cAMP to AMP); format: biochemical; details: 100 nM cAMP; purified GST fusion protein, baculovirus/Sf-9; 10 min at 30° C
T1 construct: GST-Met 248 PDE IVa; made in house; host or cells: Sf-9 insect cells (baculovirus expression system)
Description: Phosphodiesterase Scintillation Proximity Assay
CHO-K1 cells were lysed by sonication for 10 secs at a power setting of 50% (Braunsonic Model 2000) in an ice cold solution containing 50 mM Tris, pH 7.5; 1 mM EDTA; and 200 mM b-mercaptoethanol.
The soluble and particulate fractions of the cell were obtained by centrifuging the sonicate for 90 min. at 100,000 x g at 4° C. PDE activity was measured in a solution containing 50 mM Tris, pH 7.5; 10 mM MgCl2; 1 mM EDTA; and 100 nM (or indicated) ^3 H-cAMP (100 ml final volume) in the presence of varying concentrations of inhibitor. The reaction mixture containing enzyme was incubated for 10 min. at 30° C. in 96-well View Plates (Packard), and terminated by the addition of 50 ml Phosphodiesterase Scintillation Proximity Assay (SPA) Beads (Amersham) containing 18 mM ZnSO4. The amount of ^3 H-cAMP hydrolysis was determined by counting the plates in a Wallac 1450 mBeta LSC counter.
SPA based PDE activity assay protocol
Compounds which inhibit the hydrolysis of cAMP to AMP by the type-IV cAMP-specific phosphodiesterases were screened in 96-well plate format as follows:
In a 96 well-plate at 30° C. was added the test compound (dissolved in 2 ul DMSO), 188 ml of substrate buffer containing [2,8-^3 H] adenosine 3',5'-cyclic phosphate (cAMP, 100 nM to 50 μM), 10 mM MgCl2, 1 mM EDTA, 50 mM Tris, pH 7.5. The reaction was initiated by the addition of […] of human recombinant PDE-IV (the amount was controlled so that~10% product was formed in 10 min. at 30° C). The reaction was stopped after 10 min. by the addition of 1 mg of PDE-SPA beads (Amersham). The product AMP generated was quantified on a Microbeta 96-well plate counter. The signal in the absence of enzyme was defined as the background. 100% activity was defined as the signal detected in the presence of enzyme and DMSO with the background subtracted. Percentage of inhibition was calculated accordingly. IC50 value was approximated with a non-linear regression fit of the standard 4-parameter/multiple binding sites equation from a ten point titration.
IC50 values shown in Table 2 were determined with 100 nM cAMP using the purified GST fusion protein of the human recombinant phosphodiesterase IVa (met-248) produced from a baculovirus/Sf-9 expression system.

[2] = tested on: right atrial and papillary muscles; assay: Effects on cardiac muscle in vitro; design: species or system guinea pigs; details: reference PDE inhibitors; no concentration given
Source text: Right atrial and papillary muscles were dissected out from the hearts of guinea pigs and suspended in organ baths for measuring the rate (chronotropic) of spontaneously beating atria and force (inotropic) of the electrically stimulated papillary muscle.

[3] = tested on: right atrial and papillary muscles; details: non-specific PDE inhibitor; general statement; cited from earlier work

T1 sequence (P27815 248-886 limits assumed): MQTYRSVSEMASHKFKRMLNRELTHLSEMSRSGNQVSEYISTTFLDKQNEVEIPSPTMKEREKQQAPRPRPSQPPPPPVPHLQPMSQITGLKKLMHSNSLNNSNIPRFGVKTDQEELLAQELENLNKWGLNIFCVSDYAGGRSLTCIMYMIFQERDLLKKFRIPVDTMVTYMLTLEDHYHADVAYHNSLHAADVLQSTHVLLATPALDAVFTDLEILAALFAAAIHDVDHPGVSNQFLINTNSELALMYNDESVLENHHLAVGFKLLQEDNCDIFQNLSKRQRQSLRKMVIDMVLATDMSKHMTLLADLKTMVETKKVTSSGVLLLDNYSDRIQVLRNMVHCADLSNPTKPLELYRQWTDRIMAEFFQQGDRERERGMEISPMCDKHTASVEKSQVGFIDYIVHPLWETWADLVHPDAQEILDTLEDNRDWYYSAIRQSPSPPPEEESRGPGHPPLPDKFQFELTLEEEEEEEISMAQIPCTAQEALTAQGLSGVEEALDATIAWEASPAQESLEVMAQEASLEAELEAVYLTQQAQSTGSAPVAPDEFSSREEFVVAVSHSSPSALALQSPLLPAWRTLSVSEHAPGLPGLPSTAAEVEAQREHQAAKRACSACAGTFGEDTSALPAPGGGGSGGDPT

pIC50 [1]	SMILES	further results
8.70	COc1ccc([C@H](Cc2ccncc2)c2ccc(C(C)O)cc2)cc1OC1CCCC1 (stereo partly drawn) [Example 5, (R)-4-{2-(3-Cyclopentyloxy-4-methoxyphenyl)-2-[4-(1-hydroxyethyl)phenyl]ethyl}pyridine]	–
9.00	COc1ccc([C@H](Cc2ccncc2)c2ccc(C(=O)N3CCCC3)cc2)cc1OC1CCCC1 [Example 2, (R)-4-[2-(3-Cyclopentyloxy-4-methoxyphenyl)-2-(4-pyrrolidinocarbonylphenyl)ethyl]pyridine]	–
8.70	COc1ccc([C@H](Cc2ccncc2)c2ccc(-c3nnn[nH]3)cc2)cc1OC1CCCC1 [Example 4, (R)-4-{2-(3-Cyclopentyloxy-4-methoxyphenyl)-2-[4-(tetrazol-5-yl)phenyl]ethyl}pyridine]	–
–	COc1ccc(C2CNC(=O)C2)cc1OC1CCCC1 (stereo not drawn) [rolipram]	direct (chronotropic and inotropic) effects in these preparations [2]: do not have any direct effects
9.10	COc1ccc([C@H](Cc2ccncc2)c2ccc(C(=O)N3CCN(C)CC3)cc2)cc1OC1CCCC1 [Example 1, (R)-4-{2-(3-Cyclopentyloxy-4-methoxyphenyl)-2-[4-(4-methylpiperazinocarbonyl)pheny]lethyl}pyridine]	–
–	Cc1[nH]c(=O)c(C#N)cc1-c1ccncc1 [milrinone]	direct (chronotropic and inotropic) effects in these preparations [2]: positive chronotropic and inotropic effects
8.52	COc1ccc([C@H](Cc2ccncc2)c2ccc(C(C)=O)cc2)cc1OC1CCCC1 [Example 6, (R)-4-[2-(3-Cyclopentyloxy-4-methoxyphenyl)-2-(4-acetylphenyl)ethyl]pyridine]	–
–	Cn1c(=O)c2[nH]cnc2n(C)c1=O [theophylline]	cardiovascular changes [3]: significant cardiovascular changes such as tachycardia
8.52	COc1ccc([C@H](Cc2ccncc2)c2ccc(C=NO)cc2)cc1OC1CCCC1 [Example 3, (R)-4-[1-(3-Cyclopentyloxy-4-methoxyphenyl)-2-(4-pyridyl)ethyl]benzaldehyde oxime]	–
